Reference: US7138504B2, “Reagents and methods for mycophenolic acid immunoassay” (Microgenics Corporation, priority 2004, dated 2006)

Key:
[1] = test system: antibody raised against MPAlc; assay: CEDIA MPA assay specificity (cross-reactivity) in MPA-free plasma; format: binding, goats
Method: “Cross reactivity” is determined in a quantitative immunoassay by establishing a standard curve using known dilutions of MPA. The standard curve is then used to calculate the apparent concentration of the interfering substance present in various known amounts in samples assayed under substantially similar conditions. The percent (%) cross-reactivity is the measured concentration divided by the tested concentration multiplied by 100%. […] If MPA is present in the sample, it binds to the antibody, leaving the ED portion of the ED-containing conjugate free to restore enzyme activity upon association with enzyme acceptor (EA) fragments in the assay reaction mixture. The active enzyme is then capable of producing a quantifiable reaction product when exposed to appropriate substrate. If MPA is not present in the sample, the antibody binds to the ED-containing conjugate inhibiting association of the ED fragments with the EA fragments, thus inhibiting restoration of enzyme activity. The amount of reaction product and resultant absorbance change are proportional to the amount of MPA in the specimen. […] (active metabolite), were added to MPA-free plasma for measuring cross-reactivity. The estimated cross-reactivity of each compound was calculated using the formula: (measured concentration-control concentration)×100% concentration tested Additionally, commonly co-prescribed and over-the-counter (OTC) drugs were tested in MPA-free plasma for cross-reactivity in the […] assay.

[2] = test system: inosine-monophosphate dehydrogenase (IMPDH); conditions: cited from earlier work

COc1c(C)c2c(c(O[C@@H]3O[C@H](C(=O)O)[C@@H](O)[C@H](O)[C@H]3O)c1C/C=C(\C)CCC(=O)O)C(=O)OC2 [7-O-Glucuronide MPA]
% Cross-Reactivity ([1]; concentration 1000 μg/ml): 0.0%

COc1c(C)c2c(c(O)c1C/C=C(\C)CCC(=O)O[C@@H]1O[C@H](C(=O)O)[C@@H](O)[C@H](O)[C@H]1O)C(=O)OC2 [Acyl glucuronide MPA]
inhibition of IMPDH [2]: activity similar to that of MPA
% Cross-Reactivity ([1]; concentration 10 μg/ml): 192%

COc1c(C)c2c(c(O)c1C/C=C(\C)CCC(=O)O)C(=O)OC2 [MPA, Mycophenolic acid]
inhibition of IMPDH [2]: potent and specific inhibitor

COc1c(C)c2c(c(O)c1C/C=C(\C)CCC(=O)OCCN1CCOCC1)C(=O)OC2 [Mycophenolate mofetil, 2-morpholinoethyl(E)-6-(1,3-dihydro-4-hydroxy-6-methoxy-7-methyl-3-oxo-5-isobenzofuranyl)-4-methyl-4-hexenoate]
% Cross-Reactivity ([1]; concentration 926 μg/ml): 123%
